Test results as given in US10507247B2, “Optical probes for matrix metalloproteinases” (The University Court of the University of Edinburgh, priority 2015, dated 2019).
Read-outs that look alike come from different tables or passages of the source. Values belong to the molecule of their own block, whether it stands above or below them. Primed or numbered codes have the meaning given here. Where no end group is shown, it is not given here. [ ]: non-standard residue; d: D form. The star is where a group is joined. 5FAM = O=C1OC2(c3ccc(O)cc3Oc3cc(O)ccc32)c2ccc(C(=O)*)cc21; PEG2′ = PEG spacer unit (glycol linker); K(MR) = not defined here; Nle = CCCC[C@H](N)C(=O)O; βAla = NCCC(=O)O

Assays:
MMP-9 = experiment: Enzyme assay, fold change in probe fluorescence over background with MMP-9; assay type: biochemical, human; settings: different probe scaffolds (monomer, dendrimers); MMP-9 83 kDa
Description: A library of probes (listed in Table 2 below) containing FAM (Carboxyfluorescein) as the fluorophore (donor) and MethylRed (MR) as the quencher (acceptor) and a variety of peptide sequences was synthesized by manual standard solid-phase Fmoc peptide chemistry (described below).
(§1) Enzyme specificity of the lead probes with exogenous enzymes was tested using a multiwell plate fluorimeter at excitation/emission 485/528 nm (Table 3). Recombinant human catalytic domain MMPs-1, -2, -3, -7, -8, -9, -10, -11, -12, -13 were used at 30 nM. Cleavage site for each sequence is indicated in italics.
(§2) The different compounds were also evaluated according to the fold change in fluorescent signal in presence of MMP-9 and MMP-13, and the results are shown in Table 7. From this comparison, the FRET dendrimers comprising SEQ ID NO.1 and SEQ ID NO.7 (AMF-106 and SVC-186) together with the 9Dendrimer comprising SEQ ID NO.7 (SVC-196) were chosen for further evaluation. These dendrimers are shown in FIG. 7, probe A (AMF-106), probe B (SVC-186) and probe C (SVC-196).
(§3) The enzyme assays were run in a 384-well format on a PCR opaque microplate (Thermo Scientific). All dilutions and reactions were prepared in MMP buffer (50 mM Tris, 10 mM CaCl2, 0.15M NaCl, 0.05% Brij-35, pH 7). Proteolytic activity was determined by calculating the fold change in fluorescence over background signal provided by the corresponding dilution of the probe and/or inhibitors with exogenous enzymes using a-multiwell plate fluorimeter (Synergy H1 Hybrid Reader, BioTek instruments Ltd) at excitation/emission 485/528 nm. Recombinant human MMPs (Catalytic domain MMP-1, -2, -3, -7, -8, -9, -10, -11, -12, -13 (Enzo Life Sciences) and Full-length MMP-2, -9, -12 and -13 (Merck/Millipore)) were used at 30 nM. Pro-MMP-13 (R & D Systems) was activated by incubating with 1 mM 4-aminophenylmercunc acetate (APMA) for 2 hrs at 37° C. Human neutrophil elastase (Elastase Product Company, used at 2.5 ug/ml), neutrophil lysate (lysed human neutrophils), and recombinant human Thrombin (Sigma-Aldrich, used at 5 U/ml), Plasmin (Sigma-Aldrich, used at 30 nM) and Factor Xa (Sigma-Aldrich, used at 0.5 μM) were used to identify the lead molecular probe sequences. For inhibition assays, enzyme and inhibitor were pre-incubated for 1 hr at 37° C. before the addition of molecular probe.

MMP-13 [1] = experiment: Enzyme assay, fold change in probe fluorescence over background with MMP-13; assay type: biochemical, human; settings: different probe scaffolds (monomer, dendrimers); MMP-13 52 kDa
Description: as §1, §2, §3

human MMP-2 = target: T1, human MMP-2 (Homo sapiens, UniProt P08253); experiment: Enzyme kinetics of the molecular probe, MMP-2; assay type: biochemical
T1 sequence (P08253 110-660): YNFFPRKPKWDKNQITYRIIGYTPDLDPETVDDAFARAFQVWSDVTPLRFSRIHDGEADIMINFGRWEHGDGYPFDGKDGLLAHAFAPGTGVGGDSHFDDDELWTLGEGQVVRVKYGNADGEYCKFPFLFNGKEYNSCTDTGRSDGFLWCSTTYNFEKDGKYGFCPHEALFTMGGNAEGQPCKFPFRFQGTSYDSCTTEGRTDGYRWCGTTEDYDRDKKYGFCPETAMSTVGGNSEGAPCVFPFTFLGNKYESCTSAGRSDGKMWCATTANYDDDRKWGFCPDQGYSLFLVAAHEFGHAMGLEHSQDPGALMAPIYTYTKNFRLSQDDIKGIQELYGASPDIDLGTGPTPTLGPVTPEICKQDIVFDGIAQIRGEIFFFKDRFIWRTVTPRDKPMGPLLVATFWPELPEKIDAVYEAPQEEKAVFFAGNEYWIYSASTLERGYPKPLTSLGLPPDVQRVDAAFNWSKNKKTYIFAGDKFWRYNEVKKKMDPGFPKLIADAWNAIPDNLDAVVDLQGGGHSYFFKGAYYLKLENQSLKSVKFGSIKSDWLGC
Description: (§4) Enzyme kinetics of the molecular probe specificity to human MMP-2, MMP-9, MMP-13 and plasmin. The kinetic constants KM and Vmax were calculated for probe A and B (Table 8 below).
as §3, with “For inhibition assays, enzyme and inhibitor were pre-incubated for 1 hr at 37° C. before the addition of molecular probe.” left out

human MMP-9 = human MMP-9 (Homo sapiens, UniProt P14780); experiment: Enzyme kinetics of the molecular probe, MMP-9; assay type: biochemical
human MMP-9, sequence (P14780 94-707): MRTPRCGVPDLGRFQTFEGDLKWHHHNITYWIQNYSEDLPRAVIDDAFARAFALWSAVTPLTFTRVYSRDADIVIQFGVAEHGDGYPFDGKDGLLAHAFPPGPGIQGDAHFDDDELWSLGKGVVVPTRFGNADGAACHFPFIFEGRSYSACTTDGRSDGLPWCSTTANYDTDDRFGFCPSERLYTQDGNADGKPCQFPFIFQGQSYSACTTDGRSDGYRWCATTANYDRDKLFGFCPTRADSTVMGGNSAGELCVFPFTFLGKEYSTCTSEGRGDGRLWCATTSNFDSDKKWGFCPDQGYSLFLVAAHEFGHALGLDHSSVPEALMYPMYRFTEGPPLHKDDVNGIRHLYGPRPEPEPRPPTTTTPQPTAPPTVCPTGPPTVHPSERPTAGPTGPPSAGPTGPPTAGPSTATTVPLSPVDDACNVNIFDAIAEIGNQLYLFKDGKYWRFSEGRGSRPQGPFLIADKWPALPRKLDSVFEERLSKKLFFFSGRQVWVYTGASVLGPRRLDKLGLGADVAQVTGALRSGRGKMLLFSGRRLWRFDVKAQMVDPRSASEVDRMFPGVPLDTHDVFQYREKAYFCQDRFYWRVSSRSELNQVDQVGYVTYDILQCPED
Description: as §4
as §3, with “For inhibition assays, enzyme and inhibitor were pre-incubated for 1 hr at 37° C. before the addition of molecular probe.” left out

MMP-13 [2] = target: MMP-13 (Homo sapiens, UniProt P45452); experiment: Enzyme kinetics of the molecular probe, MMP-13; assay type: biochemical
Description: as §4
as §3, with “For inhibition assays, enzyme and inhibitor were pre-incubated for 1 hr at 37° C. before the addition of molecular probe.” left out

plasmin [3] = target: T2, plasmin (Homo sapiens, UniProt P00747); experiment: Enzyme kinetics of the molecular probe, plasmin; assay type: biochemical
T2 construct: purchased Sigma-Aldrich
T2 sequence (P00747 581-810 limits assumed): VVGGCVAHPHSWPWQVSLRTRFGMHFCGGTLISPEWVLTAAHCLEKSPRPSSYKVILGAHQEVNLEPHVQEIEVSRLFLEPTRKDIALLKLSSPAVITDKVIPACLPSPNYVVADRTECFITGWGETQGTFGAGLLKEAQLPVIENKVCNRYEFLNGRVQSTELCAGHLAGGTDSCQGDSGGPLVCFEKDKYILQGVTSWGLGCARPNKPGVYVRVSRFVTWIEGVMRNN
T2 sequence (P00747 97-580 partner limits assumed): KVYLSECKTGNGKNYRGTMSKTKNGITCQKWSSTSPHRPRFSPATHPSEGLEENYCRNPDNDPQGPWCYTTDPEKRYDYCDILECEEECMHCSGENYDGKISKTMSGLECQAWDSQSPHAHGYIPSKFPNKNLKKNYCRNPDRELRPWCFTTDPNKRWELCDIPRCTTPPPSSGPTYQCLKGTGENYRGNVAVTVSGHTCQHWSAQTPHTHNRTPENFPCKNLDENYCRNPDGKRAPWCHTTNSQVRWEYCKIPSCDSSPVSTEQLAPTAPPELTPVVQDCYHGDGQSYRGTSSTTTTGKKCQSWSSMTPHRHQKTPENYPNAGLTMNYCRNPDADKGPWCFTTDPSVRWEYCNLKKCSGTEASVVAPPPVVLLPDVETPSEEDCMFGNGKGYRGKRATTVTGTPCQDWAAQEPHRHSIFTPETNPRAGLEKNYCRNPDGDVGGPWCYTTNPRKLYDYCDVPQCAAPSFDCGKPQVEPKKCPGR
Description: as §4
as §3, with “For inhibition assays, enzyme and inhibitor were pre-incubated for 1 hr at 37° C. before the addition of molecular probe.” left out

plasmin [4] = target: T2, plasmin; experiment: Susceptibility / stability of probes to plasmin; assay type: biochemical
Description: (§5) FIG. 8. Enzyme specificity of the FRET branched probes A, B and C. Data represents the average fold change in fluorescence over background signal provided by probe (10 μM) with exogenous enzymes using a multiwell plate fluorimeter (Synergy H1 Hybrid Reader, BioTek instruments Ltd) at excitation/emission 485/528 nm. Recombinant human catalytic domain MMPs-1, -2, -3, -7, -8, -9, -10, -11, -12, -13 were used at 30 nM. Recombinant human Thrombin, Plasmin and Factor Xa were used at 5 U/ml, 30 nM, 0.5 μM, respectively.
Also, to reduce degradation without altering the amino acid constituents we have synthesised variants including PEG units at the amino and/or carboxy termini in order to block degradation from the ends of the peptide sequence.
(§6) Three selected probes (A: AMF-106, B: SVC-186 B, and C: SVC-196) were evaluated in vitro in a new experiment including other members of the MMP family (MMPs-1, -2, -3, -7, -8, -9, -10, -11, -12, -13) as well as Thrombin, Plasmin and Factor Xa, and the results are shown in FIG. 8. […] The plasmin cleavage site was identified and attempts to make a resistant version replacing with D-aa in these positions were unsuccessful.
as §3, with “Human neutrophil elastase (Elastase Product Company, used at 2.5 ug/ml), neutrophil lysate (lysed human neutrophils), and recombinant human Thrombin (Sigma-Aldrich, used at 5 U/ml), Plasmin (Sigma-Aldrich, used at 30 nM) and Factor Xa (Sigma-Aldrich, used at 0.5 μM) were used to identify the lead molecular probe sequences. For inhibition assays, enzyme and inhibitor were pre-incubated for 1 hr at 37° C. before the addition of molecular probe.” left out

[5] = test system: MMPs-1, -2, -3, -7, -8, -9, -10, -11, -12, -13, Thrombin, Plasmin and Factor Xa; experiment: Enzyme specificity of the FRET branched probes with exogenous enzymes (FIG. 8); assay type: biochemical, human; settings: probe 10 μM; MMPs 30 nM; Thrombin 5 U/ml, Plasmin 30 nM, Factor Xa 0.5 μM
Description: as §5, §6, §3

MMP [6] = experiment: Activation of probe variants by MMP in vitro; assay type: biochemical; settings: additional quencher per probe element
Description: The selectivity of the probes, together with further probes AMF-14b, SVC-030 (both defined in Table 6 below) and SVC-068 (defined in Table 4 below), to detect MMP over elastase, another proteinase relevant in lung disease, was tested and the results for all probes are shown in FIG. 2.
Variants consisting of D-amino acids at the recognition site sequence with or without blocking PEG units were also synthesised and assessed.
as §3

MMP-2/9/13 in the lung = experiment: Ex vivo and in vivo ovine lung and human lung tissue imaging by fCFM; settings: lung environment
Description: All compounds have undergone biological assessment. For stability we have assessed each compound in the presence of 0.9% NaCl (Saline) or pooled lavage fluid from patients with acute lung injury and analysed by matrix-assisted laser desorption/ionization (MALDI) or fourier transform mass spectrometry (FTMS). In vitro activation was assessed on benchtop confocal in the presence of compound with lung tissue samples. For the ex vivo and in vivo ovine lung (FIG. 11) and human lung tissue experiments (FIG. 12) each compound was assessed in a control lung segment (instilled with 2 ml PBS) or a fibrotic/cancer segment, the compound was administered to the segment of interest and this was imaged by probe based fCFM.

MMP [7] = experiment: Probe specificity by target inhibition (FIG. 9); assay type: biochemical, human; settings: probe 1 μM, 30 min, inhibitor 200 nM
Description: Probe specificity by target inhibition for probes A and probe B. Data represents the fluorescence signal provided by the probe (1 μM) after 30 min using a multiwell plate fluorimeter at excitation/emission 485/528 nm. To validate the specificity and ability of molecular probe to detect the target enzyme, probe fluorescence (initiated by cleavage) was measured in the presence of enzyme with/without inhibitor.
The enzyme assays were run in a 384-well format on a PCR opaque microplate (Thermo Scientific). All dilutions and reactions were prepared in MMP buffer (50 mM Tris, 10 mM CaCl2, 0.15M NaCl, 0.05% Brij-35, pH 7). Proteolytic activity was determined by calculating the fold change in fluorescence over background signal provided by the corresponding dilution of the probe and/or inhibitors with exogenous enzymes using a-multiwell plate fluorimeter (Synergy H1 Hybrid Reader, BioTek instruments Ltd) at excitation/emission 485/528 nm. Recombinant human MMPs (Catalytic domain MMP-1, -2, -3, -7, -8, -9, -10, -11, -12, -13 (Enzo Life Sciences) and Full-length MMP-2, -9, -12 and -13 (Merck/Millipore)) were used at 30 nM. Pro-MMP-13 (R & D Systems) was activated by incubating with 1 mM 4-aminophenylmercunc acetate (APMA) for 2 hrs at 37° C. […] For inhibition assays, enzyme and inhibitor were pre-incubated for 1 hr at 37° C. before the addition of molecular probe.

- MMP-9 (83 kDa), fold change in fluorescent signal (MMP-9): 11.20
- MMP-13 (52 kDa), fold change in fluorescent signal (MMP-13 [1]): 34.52
- Km (human MMP-2): 0.06 µM
- Km (human MMP-9): 0.53 µM
- Km (MMP-13 [2]): 0.22 µM
- Km (plasmin [3]): 0.36 µM
- stability / susceptibility to plasmin (plasmin [4]): susceptible to plasmin
- selectivity for MMP-2/9 [5]: better selectivity for MMP-2/9
Molecule: FAM-PEG2-G-P-K-G-L-K-G-K(MR)-PEG2-k-PEG2-k-3 probe elements ({5FAM-PEG2′}-GPKGLKG; not fully specified (C-terminus); also: three probe elements on a scaffold) [AMF-106]

- MMP-9 (83 kDa), fold change in fluorescent signal (MMP-9): 4.84
- MMP-13 (52 kDa), fold change in fluorescent signal (MMP-13 [1]): 9.00
Molecule: FAM-PEG2-PFGNleKβA-K[K(MR)2]-PEG2-k-PEG2-k-3 probe elements [SVC-195]
- signal-to-noise ratio (MMP [6]): did not further improved

- MMP-9 (83 kDa), fold change in fluorescent signal (MMP-9): 6.49
- MMP-13 (52 kDa), fold change in fluorescent signal (MMP-13 [1]): 26.65
- stability / susceptibility to plasmin (plasmin [4]; listed as Probe B): plasmin resistant
- stability / susceptibility to plasmin (plasmin [4]; listed as SVC-01-186): stable
- selectivity for MMP-2/9 [5]: better selectivity for MMP-2/9
Molecule: FAM-PEG2-PFGNleKβA-K(MR)-PEG2-k-PEG2-k-3 probe elements ({5FAM-PEG2′}-PFG[Nle]K[βAla]-{K(MR)-PEG2′-code k-PEG2′-code k}; reading uncertain; also: three probe elements on a scaffold) [SVC-186]
- activation in the presence of MMP-2/9/13 in the lung (MMP-2/9/13 in the lung): able to activate

- fluorescent intensity of probes A and B after incubation of the enzyme with inhibitor (MMP [7]): significantly reduced
Molecule: CNC(=O)[C@@H](NC(=O)[C@H](CC(C)C)[C@H](O)C(=O)NO)C(C)(C)C [Marimastat]
